The nature of data set [1]: Budesonide study in 125 children with asthma using the system of the invention, asthma symptom score. As to conditions: Improved Invention System, 200/50 μg; for daytime asthma symptom score, Baseline at entry / daytime asthma symptom score, End of Study: visual analogue range 0-3. The data set is classed as in vivo. The protocol: A study in 125 children with asthma using the system disclosed in this patent delivered three different regimes of a short duration (2-12 weeks) high delivered daily dose 200 μg followed by a long duration (12-22 weeks) low daily dose delivered dose 50 μg. Their treatment compliance was monitored electronically and their asthma symptoms by the parents using a visual analogue score. The treatment compliance over the study was 80/90% and the asthma scores reduced from a baseline of 1.23/1.27 to 0.23/0.43.

Data set [2] in a line: Budesonide study in 481 children with asthma using conventional nebulizers, asthma symptom score. It counts as in vivo. As to conditions: Conventional Nebuliser; for daytime asthma symptom score, End of Study: 12 weeks; for daytime asthma symptom score, End of Study / daytime asthma symptom score, Baseline at entry: visual analogue range 0-3. The protocol:
The study in 481 children with asthma using conventional nebulizers delivered five different regimes. Nominal nebulizer doses were in the range 250/1000 μg daily and placebo over a 12 week period. Their asthma symptoms by the parents using a visual analogue scores, the asthma scores reduced from 1.21/1.33 to 0.87/0.93.

Data set [3] concerns susceptible bacteria in the endobronchial space. As to conditions: 200-400 mg aminoglycoside in about 5 ml, 0.225% NaCl, pH 5.5-6.5, aerosolised (WO 96/12471); cited from earlier work.
A short description of data set [4]: Sputum tobramycin concentration, conventional nebulizer versus high compliance system. It counts as in vivo, patients. As to conditions: human, inhaled. As for the experimental part:
To compare the performance of a conventional nebulizer and a high compliance system according to this invention using Tobramycin 8 patients received either 300 mg/5 ml via conventional nebulizer or 30 mg delivered dose via the high compliance system. The mean sputum tobramycin concentrations at 2 hours were 128 μg/g for the conventional nebulizer and 98 μg/g for the high compliance system. This study may indicate that an even lower dose may be acceptable to achieve the MIC level when delivered with a high compliance system such as disclosed in this invention, in the range 5-30 mg Tobramycin.

Another data set relates to Pseudomonas aeriginosa. The note with it: typically required, for 90% of organisms; to be maintained for 120 minutes; cited from earlier work.
The nature of data set [5]: rhDNase response (FEV1) in adult CF patients who previously failed to respond. The data set is classed as in vivo. The text has this:
Mean change in FEV1 was 11.51%.

The conditions of data set [6]: when starting rhDNase therapy; cited from earlier work.

`CCCC1O[C@@H]2C[C@H]3[C@@H]4CCC5=CC(=O)C=C[C@]5(C)[C@H]4[C@@H](O)C[C@]3(C)[C@]2(C(=O)CO)O1` (stereo partly shown) [Budesonide]: the “daytime asthma symptom score, Change” value in data set [1] (2/22 weeks) is −1; in data set [1] (6/18 weeks), −0.83; in data set [1] (12/12 weeks), −0.91; in data set [2] (250 μg once daily), −0.28; in data set [2] (250 μg twice daily) it was −0.4; in data set [2] (500 μg twice daily), −0.46. Moreover, in data set [2] (1000 μg once daily), the “daytime asthma symptom score, Change” value is −0.37. The “daytime asthma symptom score, Baseline at entry” value in data set [1] (2/22 weeks) amounted to 1.23; in data set [1] (6/18 weeks), 1.26; in data set [1] (12/12 weeks) it was 1.27; in data set [2] (250 μg once daily), 1.21; in data set [2] (250 μg twice daily), 1.31; in data set [2] (500 μg twice daily), 1.33. Further, the “daytime asthma symptom score, Baseline at entry” value in data set [2] (1000 μg once daily) came out at 1.28. Moreover, the “daytime asthma symptom score, End of Study” value in data set [1] (2/22 weeks) was 0.23; in data set [1] (6/18 weeks), 0.43; in data set [1] (12/12 weeks) it was 0.36; in data set [2] (250 μg once daily) it was 0.93; in data set [2] (250 μg twice daily), 0.91; in data set [2] (500 μg twice daily), 0.87. Also, in data set [2] (1000 μg once daily), the “daytime asthma symptom score, End of Study” value came out at 0.91.
On to `NC[C@H]1O[C@H](O[C@H]2[C@H](O)[C@@H](O[C@H]3O[C@H](CO)[C@@H](O)[C@H](N)[C@H]3O)[C@H](N)C[C@@H]2N)[C@H](N)C[C@@H]1O` [Tobramycin], for which the “suppresses and inhibits susceptible bacteria” value in data set [3] was “at least 95%”. Also, the concentration at 2 h in data set [4] (30 mg delivered dose via the high compliance system) is 98000 ng/g; in data set [4] (300 mg/5 ml via conventional nebulizer) it was 128000 ng/g. The MIC level with Pseudomonas aeriginosa is greater than 16 µg/mL.

B1: rhDNase: Pulmozyme (recombinant, human DNase), mucoactive drug for cystic fibrosis lung disease (protein, UniProt P24855 23-282, looked up)
Deoxyribonuclease-1: LKIAAFNIQTFGETKMSNATLVSYIVQILSRYDIALVQEVRDSHLTAVGKLLDNLNQDAPDTYHYVVSEPLGRNSYKERYLFVYRPDQVSAVDSYYYDDGCEPCGNDTFNREPAIVRFFSRFTEVREFAIVPLHAAPGDAVAEIDALYDVYLDVQEKWGLEDVMLMGDFNAGCSYVRPSQWSSIRLWTSPTFQWLIPDSADTTATPTHCAYDRIVVAGMLLRGAVVPDSALPFNFQAAYGLSDQLAQAISDHYPVEVMLK
modifications: dornase alfa
In the case of B1, the “Mean change in FEV1” value in data set [5] (10 days, 0.25 ml/0.25 mg of the formulation, high compliance delivery system) is 11.51%. For the same molecule, the “mean response to therapy, change in FEV1” value in data set [5] (previous rhDNase therapy with conventional nebulizer devices) is 4.17%. The “patients showing a greater than 10% change in FEV1 over baseline” value in data set [6] is “Approximately 38%”.

(Values after US8820316B2, “Drug delivery apparatus” (Respironics Respiratory Drug Delivery (UK) Ltd, priority 2000, dated 2014).)
